This is an account of results in US20240327433A1, “PYRIMIDOPYRAN COMPOUND” (Medshine Discovery Inc., priority 2021, published 2024).

Where a name gives a salt, the structure may show the parent alone.

Series [1] has as its system KRAS^G12D GP2D. Put plainly: Anti-cell proliferation effect in tumor cell line GP2D (CellTiter-Glo 3D). Format: cell-based. The settings on record: 120 hours. On the procedure: (§1) In this assay, the effect of the compounds on inhibiting cell proliferation was studied by detecting the effect of the compounds on the cell activity in vitro in the tumor cell lines AsPC-1 and GP2D.
(§2) The tumor cell lines were cultured in a 37° C., 5% CO2 incubator according to the culture conditions indicated in the culture method. Cells were passaged regularly, and cells in logarithmic growth phase were used for plating.
(§3) Cells were stained with trypan blue and viable cells were counted.
(§4) The cell concentration was adjusted to an appropriate concentration.
(§5) To each well of a ULA culture plate was added 135 μL of cell suspension. To the blank control well was added the same volume of culture medium without cells.
(§6) After plating, the ULA culture plate was immediately centrifuged at room temperature at 1000 rpm for 10 minutes. Note: After completion of the centrifugation, subsequent operations must be processed carefully to avoid unnecessary shocks.
(§7) The culture plate was incubated in a 37° C., 5% CO2, 100% relative humidity incubator overnight.
(§8) 10× compound working solution (10× working solution in DMSO) was formulated, and then to the ULA culture plate was add 15 μL of 10× compound working solution, and to the vehicle control and blank control was added 15 μL of DMSO-cell culture medium mixture, respectively. […]
(§9) The luminescent signal was detected on a 2104 EnVision plate reader. […]

Series [2] is described as follows: Plasma protein binding (PPB), equilibrium dialysis, CD-1 mouse plasma. The class given is in vitro ADME. The settings on record: 2 μM, unbound rate. The protocol: The protein binding rates of the compound in the plasma of CD-1 mouse, Sprague-Dawley rat, Beagle dog, cynomolgus monkey and human were determined by equilibrium dialysis method.
The plasmas of the above-mentioned five species were formulated to plasma samples with a compound concentration of 2 μM. The plasma samples were placed in a 96-well rapid equilibrium dialysis device, and dialyzed against phosphate buffered saline at 37±1° C. for 4 h. In this assay, warfarin was used as a control compound. The concentrations of analytes in plasma and dialysis buffer were determined by LC-MS/MS mothed.

For series [3], the system named is p-ERK in GP2D cells. Put plainly: Assay of p-ERK inhibition in GP2D cells (HTRF). Format: cell-based. To be noted: 1 hour incubation. On the procedure: The cell plate was inoculated in a carbon dioxide incubator at 37° C. overnight; • 2) 2 μL of the compound was weighed and added to 78 μL of the cell medium. After the mixture was mixed thoroughly, 20 μL of the solution of compound was weighed and added to the corresponding well of the cell plate. The cell plate was placed back to the carbon dioxide incubator and incubated for another 1 hour; • 3) After completion of the incubation, the cell supernatant was discarded. 50 μL of 1× cell lysate was added to each well. The mixture was incubated with shaking at room temperature for 30 minutes; • 4) Phospho-ERK1/2 Eu Cryptate antibody and Phospho-ERK1/2 d2 antibody were diluted 20-fold with detection buffer; • 5) 16 μL of cell lysate supernatant was weighed and added into each well of a new 384 white microwell plate, and then 2 μL of the diluted solution of Phospho-ERK1/2 Eu Cryptate antibody and 2 μL of the diluted solution of Phospho-ERK1/2 d2 antibody dilution were added. The mixture was incubated at room temperature for at least 4 hours; • 6) After completion of the incubation, HTRF was read with multi-label analyzer: excitation: 320 nm, emission: 615 nm, 665 nm; • 7). IC50 of the compounds to be assayed was calculated.

A short description of series [4]: PPB assay: recovery rate in the dialysis device (five species plasma). Format: in vitro ADME. The settings on record: CD-1 (mouse), Sprague-Dawley (rat), Beagle (dog), cynomolgus monkey, human. On the procedure:
The protein binding rates of the compound in the plasma of CD-1 mouse, Sprague-Dawley rat, Beagle dog, cynomolgus monkey and human were determined by equilibrium dialysis method. The plasmas of the above-mentioned five species were formulated to plasma samples with a compound concentration of 2 μM. The plasma samples were placed in a 96-well rapid equilibrium dialysis device, and dialyzed against phosphate buffered saline at 37±1° C. for 4 h. In this assay, warfarin was used as a control compound. The concentrations of analytes in plasma and dialysis buffer were determined by LC-MS/MS mothed.

Series [5] deals with KRAS^G12D AsPC-1. Kind of series: Anti-cell proliferation effect in tumor cell line AsPC-1 (CellTiter-Glo 3D). The class given is cell-based. The settings on record: Homo sapiens, ASPC1, AsPC-1, 120 hours. On the procedure: as §1, §2, §3, §4, §5, §6, §7, §8, §9

Regarding `Cc1cc(N)c(F)c(C2Cc3nc(OC[C@@]45CCCN4C[C@H](F)C5)nc(N4CC5CCC(C4)N5)c3CO2)c1C(F)(F)F` (some centres unmarked) [Compound 1 hydrochloride], the IC50 is 37 nM in series [1], 0.8 nM in series [3] and 315 nM in series [5]. Also, the “Unbound PPB M” value in series [2] was found to be 2.7%. The same compound displayed a recovery at 4 h, 2 μM in series [4] of 82.4 to 110%.
